Data from US9783521B2, “PDE10 inhibitors and related compositions and methods” (Omeros Corporation, priority 2008, dated 2017).

target: T1, recombinant human PDE 10A1 (Homo sapiens, UniProt Q9Y233); experiment: PDE10 biochemical assay (two-step Thompson and Appleman method or SPA); details: not given
T1 construct: made in house; host or cells: Sf9 insect cells, baculoviral system
Protocol: After the appropriate incubation time, the reaction is terminated by heating. The mixture is then subjected to treatment with snake venom phosphatase. […] IC50 values can be calculated by performing the experiment at several concentrations using standard graphical means. A detailed description of the actual technique used for IC50 assays as set forth in following Examples.
The phosphodiesterase (PDE) assay was performed using recombinant human PDE 1A3, 2A3, 3 catalytic region, 4 catalytic region, 5 catalytic region, 7A, 8A, 9A2, 10A1 and 11A1 enzymes expressed in a baculoviral system using Sf9 cells. PDE activity was measured using a modification of the two-step method of Thompson and Appleman described above which was adapted for 96 well plate format. […] Reactions were initiated with enzyme and incubated with (^3H)-substrate and substance for 20 minutes at 30° C. The reaction was terminated by denaturing the enzyme (heating the reaction to 70° C. for 2 minutes). The reaction was then cooled at 4° C. for 10 minutes before the addition of snake venom (Crotalus atrox, 0.2 mg/ml) for 10 minutes at 30° C., thus allowing non-specific hydrolysis of the tritiated substrate. Separation of the remaining unhydrolysed cyclic nucleotide was achieved by a batch binding of the mixture to activated Dowex (200 μl) anion exchange resin. The anion exchange resin bound the charged nucleotides, leaving only hydrolysed (^3H) substrate in the soluble fraction. The soluble fraction (50 μl) was then added to microscint-20 (200 μl) and counted on a Top Count Plate reader. Radioactivity units were plotted against inhibitor concentration and IC50 values obtained using Graph Pad Prism software.
Alternatively, phosphodiesterase activity was measured by scintillation proximity assay (SPA) with [^3H]-cGMP as substrate. Purified PDE10 was diluted and stored in 25 mM Tris-Cl (pH 8.0)/100 mM NaCl/0.05% Tween 20/50% glycerol/3 mM DTT. Assays contained (final concentrations): 50 mM Tris-Cl (pH 7.5)/8.3 mM MgCl2/1.7 mM EGTA/0.5 mg/ml BSA/5% DMSO and 2 ng PDE10 in a final volume of 0.1 mL. Inhibition was evaluated at 8 concentrations in duplicate. Reactions were initiated by addition of enzyme and were terminated after 20 minutes at 30° C. by the addition of 50 μl of SPA beads containing Zn^++. The mixture was shaken, allowed to settle for 3 hours, and counted in a Wallac plate counter. Results (net cpm) were fitted to a four parameter logistic model using Excel Solver®.

T1 sequence (Q9Y233 1-779 isoform Q9Y233-1): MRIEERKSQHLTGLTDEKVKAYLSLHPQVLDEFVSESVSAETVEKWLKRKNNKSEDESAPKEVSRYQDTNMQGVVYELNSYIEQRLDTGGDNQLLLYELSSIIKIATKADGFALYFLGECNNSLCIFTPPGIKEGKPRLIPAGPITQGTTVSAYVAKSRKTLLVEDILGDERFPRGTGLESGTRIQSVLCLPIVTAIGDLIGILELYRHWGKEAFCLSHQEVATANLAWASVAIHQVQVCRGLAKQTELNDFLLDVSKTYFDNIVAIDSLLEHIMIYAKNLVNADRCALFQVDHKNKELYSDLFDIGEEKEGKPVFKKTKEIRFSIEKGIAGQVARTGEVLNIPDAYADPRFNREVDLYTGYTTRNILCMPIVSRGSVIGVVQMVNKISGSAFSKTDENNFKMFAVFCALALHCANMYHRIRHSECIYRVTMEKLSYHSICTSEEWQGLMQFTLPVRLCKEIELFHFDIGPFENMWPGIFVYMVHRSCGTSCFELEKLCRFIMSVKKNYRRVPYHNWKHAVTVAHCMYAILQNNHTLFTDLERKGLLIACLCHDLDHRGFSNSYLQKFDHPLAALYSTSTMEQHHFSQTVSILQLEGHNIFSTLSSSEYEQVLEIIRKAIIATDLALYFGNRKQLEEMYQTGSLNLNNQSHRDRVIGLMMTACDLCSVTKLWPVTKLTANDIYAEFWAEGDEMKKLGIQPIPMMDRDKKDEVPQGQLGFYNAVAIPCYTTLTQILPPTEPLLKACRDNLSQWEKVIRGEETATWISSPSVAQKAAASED

Row | Compound | IC50 [µM]
1 | CCOc1cc(/C=N/NC(=O)C(OC)c2ccc(Cl)cc2)ccc1OC (stereo not drawn) [Compound 12-7] | ≤ 1
2 | COc1ccc(/C=N/N(C)C(=O)C(OC)c2ccccc2)cc1OC (stereo not drawn) [Compound 12-70, (E)-N′-(3,4-Dimethoxybenzylidene)-2-methoxy-N-methyl-2-phenylacetohydrazide] | ≤ 1

same assay, conditions: PDE10 inhibition; read-out: IC50

Row | Compound | IC50 [µM]
3 | COc1cc(/C=N/NC(=O)C(OC)c2ccc3ccccc3c2)cc(OC)c1OC (stereo not drawn) [Compound 1-1, (E)-2-Methoxy-2-(naphthalen-2-yl)-N′-(3,4,5-trimethoxybenzylidene)acetohydrazide] | ≤ 1
4 | COc1cc(/C=N/NC(=O)C(c2ccccc2)c2ccccc2)cc(OC)c1OC [Compound 3-1, (E)-2,2-Diphenyl-N′-(3,4,5-trimethoxybenzylidene)acetohydrazide] | ≤ 1
5 | COc1ccc(/C=N/NC(=O)C(SC)c2ccccc2)cc1OC (stereo not drawn) [Compound 4-1, (E)-N′-(3,4-Dimethoxybenzylidene)-2-(methylthio)-2-phenylacetohydrazide] | ≤ 1
6 | COc1cc(/C=N/N=C(\OC(=O)C(C)(C)C)C(OC)c2cccc3ccccc23)cc(OC)c1OC (stereo not drawn) [Compound 5-1, (1Z, N′E)-2-Methoxy-2-(naphthalen-1-yl)-N′-(3,4,5-trimethoxybenzylidene)acetohydrazonic pivalic anhydride] | ≤ 1
7 | COc1cc(/C=N/NC(=O)C(OC)c2cccc3ncccc23)cc(OC)c1OC (stereo not drawn) [Compound 6-1, (E)-2-methoxy-2-(quinolin-5-yl)-N′-(3,4,5-trimethoxybenzylidene)acetohydrazide] | ≤ 1
8 | COc1cc(/C=N/NC(=O)C(OC)c2ccc(N(C)C)cc2)cc(OC)c1OC (stereo not drawn) [Compound 7-1, (E)-2-(4-(Dimethylamino)phenyl)-2-methoxy-N′-(3,4,5-trimethoxybenzylidene)acetohydrazide] | ≤ 1
9 | COc1cc(/C=N/NC(=O)C(OC)c2cc3ccccc3s2)cc(OC)c1OC (stereo not drawn) [Compound 8-1, (E)-2-(Benzo[b]thiophen-2-yl)-2-methoxy-N′-(3,4,5-trimethoxybenzylidene)acetohydrazide] | ≤ 1
10 | COc1ccc(/C=N/NC(=O)C(c2ccccc2)C(C)C)cc1OC (stereo not drawn) [Compound 9-1, (E)-N′-(3,4-Dimethoxybenzylidene)-3-methyl-2-phenylbutanehydrazide] | ≤ 1
11 | COc1cc(/C=N/N(CC(F)(F)F)C(=O)C(OC)c2ccc(-n3cccn3)cc2)cc(OC)c1Br (stereo not drawn) [Compound 11-1, (E)-2-(4-(1H-pyrazol-1-yl)phenyl)-N′-(4-bromo-3,5-dimethoxybenzylidene)-2-methoxy-N-(2,2,2-trifluoroethyl)acetohydrazide] | ≤ 1
12 | COc1cc(/C=N/NC(=O)C(OC)c2ccc(F)cc2)cc(OC)c1Br (stereo not drawn) [Compound 12-1] | ≤ 1
13 | CCOc1cc(/C=N/NC(=O)C(OC)c2ccc(Cl)cc2)cc(Br)c1OC (stereo not drawn) [Compound 12-2] | ≤ 1
14 | COc1cc(/C=N/NC(=O)C(OC)c2ccc(F)cc2)cc(Br)c1OC (stereo not drawn) [Compound 12-3] | ≤ 1
15 | COc1cc(/C=N/NC(=O)C(OC)c2ccc(Cl)cc2)cc(Br)c1OC (stereo not drawn) [Compound 12-4] | ≤ 1
16 | CCOc1cc(/C=N/NC(=O)C(OC)c2ccc(Cl)cc2)cc(Cl)c1OC (stereo not drawn) [Compound 12-5] | ≤ 1
17 | COc1cc(/C=N/NC(=O)C(OC)c2ccc(Cl)cc2)cc(Cl)c1OC (stereo not drawn) [Compound 12-6] | ≤ 1
18 | COc1cc(/C=N/NC(=O)C(OC)c2ccc(Cl)cc2)ccc1C (stereo not drawn) [Compound 12-8] | ≤ 1
19 | COc1ccc(/C=N/NC(=O)C(OC)c2ccc(Cl)cc2)cc1OC (stereo not drawn) [Compound 12-10] | ≤ 1
20 | COc1cc(/C=N/NC(=O)C(OC)c2ccc(Cl)cc2)cc(OC)c1Br (stereo not drawn) [Compound 12-12] | ≤ 1
21 | COc1cc(/C=N/NC(=O)C(OC)c2cccc3ccccc23)cc(OC)c1OC (stereo not drawn) [Compound 12-13] | ≤ 1
22 | COc1cc(/C=N/NC(=O)C(OC)c2ccc(Cl)cc2)cc(C#N)c1OC (stereo not drawn) [Compound 12-14] | ≤ 1
23 | COc1cc(/C=N/NC(=O)C(OC)c2ccc(Cl)cc2)cc(OC)c1OC (stereo not drawn) [Compound 12-15] | ≤ 1
24 | COc1ccc(/C=N/NC(=O)C(OC)c2ccc3ccccc3c2)cc1OC(F)F (stereo not drawn) [Compound 12-16] | ≤ 1
25 | COc1cc(/C=N/NC(=O)C(OC)c2ccccc2)cc(OC)c1OC (stereo not drawn) [Compound 12-17] | ≤ 1
26 | COc1ccc(/C=N/NC(=O)C(OC)c2ccc3ccccc3c2)cc1OC1CCCC1 (stereo not drawn) [Compound 12-18] | ≤ 1
27 | COc1ccc(C(OC)C(=O)N/N=C/c2ccc(OC)c(OC)c2)cc1 (stereo not drawn) [Compound 12-19] | ≤ 1

Row | Compound | IC50 [µM]
28 | COc1cc(/C=N/NC(=O)C(OC)c2ccccc2)ccc1C (stereo not drawn) [Compound 12-20] | ≤ 1
29 | COc1cc(/C=N/NC(=O)C(OC)c2ccc(Cl)cc2)ccc1C#N (stereo not drawn) [Compound 12-22] | ≤ 1
30 | COc1ccc(/C=N/NC(=O)C(OC)c2ccc3ccccc3c2)cc1OC (stereo not drawn) [Compound 12-23] | ≤ 1
31 | COc1cc(/C=N/NC(=O)C(OC)c2ccccc2)cc(OC)c1O (stereo not drawn) [Compound 12-24] | ≤ 1
32 | COc1cc(/C=N/NC(=O)C(OC)c2ccccc2)cc(OC)c1 (stereo not drawn) [Compound 12-25] | ≤ 1
33 | CCOc1ccc(/C=N/NC(=O)C(OC)c2ccccc2)cc1OCC (stereo not drawn) [Compound 12-26] | ≤ 1
34 | COc1cc(/C=N/NC(=O)C(Oc2ccccc2)c2ccccc2)cc(OC)c1OC (stereo not drawn) [Compound 12-41] | ≤ 1
35 | COc1cc(/C=N/NC(=O)C(OC)c2cc3ccccc3s2)cc(Cl)c1OC (stereo not drawn) [Compound 12-42] | ≤ 1
36 | COCCOC(C(=O)N/N=C/c1cc(OC)c(Br)c(OC)c1)c1ccc2ccccc2c1 (stereo not drawn) [Compound 12-43] | ≤ 1
37 | COCCOC(C(=O)N/N=C/c1cc(OC)c(OC)c(OC)c1)c1ccc2ccccc2c1 (stereo not drawn) [Compound 12-45] | ≤ 1
38 | COCCOC(C(=O)N/N=C/c1cc(Br)c(OC)c(OC)c1)c1ccc2ccccc2c1 (stereo not drawn) [Compound 12-48] | ≤ 1
39 | COc1cc(/C=N/NC(=O)C(OC)c2ccnc3ccccc23)cc(OC)c1OC (stereo not drawn) [Compound 12-56] | ≤ 1
40 | COc1cc(/C=N/NC(=O)C(OC)c2ccnc3ccccc23)cc(Br)c1OC (stereo not drawn) [Compound 12-58] | ≤ 1
41 | CCOC(C(=O)N/N=C/c1cc(OC)c(OC)c(OC)c1)c1cccc2ncccc12 (stereo not drawn) [Compound 12-59] | ≤ 1
42 | COc1cc(/C=N/NC(=O)C(OC)c2cnc3ccccc3c2)cc(OC)c1OC (stereo not drawn) [Compound 12-61] | ≤ 1
43 | COc1cc(/C(C)=N/NC(=O)C(OC)c2ccccc2)cc(OC)c1OC (stereo not drawn) [Compound 12-69] | ≤ 1
44 | CCC(C(=O)N/N=C/c1ccc(OC)c(OC)c1)c1ccccc1 (stereo not drawn) [Compound 12-71] | ≤ 1
45 | COc1cc(Cl)c(/C=N/NC(=O)C(OC)c2ccc3c(c2)OCCO3)cc1OC (stereo not drawn) [Compound 12-83] | ≤ 1
46 | CCOC(C(=O)N/N=C/c1cc(OC)c(Br)c(OC)c1)c1ccc2c(c1)OCCN2C (stereo not drawn) [Compound 12-84] | ≤ 1
47 | CCOC(C(=O)N/N=C/c1cc(Cl)c(OC)c(OC)c1)c1ccc2c(c1)OCCN2C (stereo not drawn) [Compound 12-85] | ≤ 1
48 | CCOC(C(=O)N/N=C/c1cc(Br)c(OC)c(OC)c1)c1ccc2c(c1)OCCN2C (stereo not drawn) [Compound 12-86] | ≤ 1
49 | CCOC(C(=O)N/N=C/c1cc(OC)c(Br)c(OC)c1)c1ccc2c(c1)OCCO2 (stereo not drawn) [Compound 12-87] | ≤ 1
50 | CCOC(C(=O)N/N=C/c1cc(OC)c(OC)c(OC)c1)c1ccc2c(c1)OCCO2 (stereo not drawn) [Compound 12-88] | ≤ 1
51 | COc1cc(/C=N/NC(=O)Cc2ccccc2)cc(OC)c1OC [Compound 12-89] | ≤ 1
